Measurements reported in ChEMBL document CHEMBL1130994, “3-trifluoromethylcarbacephems: synthesis of broad spectrum antibacterial compounds” (1998).
Values after ≈ are worked out from the molar mass of the structure shown.

What was measured:
[1] = tested on: Staphylococcus aureus; assay: Compound was evaluated for inhibitory activity against X400S Staphylococcus aureus methicillin resistant and macrolide resistant; format: functional
[2] = tested on: Serratia; assay: Compound was evaluated for inhibitory activity against SE3 Serratia; format: functional
[3] = tested on: Haemophilus influenzae; assay: Compound was evaluated for inhibitory activity against 76 Haemophilus influenzae beta-lactamase; format: functional
[4] = tested on: Klebsiella pneumoniae; assay: Compound was evaluated for inhibitory activity against KAE Klebsiella pneumoniae; format: functional
[5] = tested on: Klebsiella aerogenes; assay: Compound was evaluated for inhibitory activity against EB17 Enterobacter aerogenes; format: functional
[6] = tested on: Staphylococcus aureus; assay: Compound was evaluated for inhibitory activity against S13E Staphylococcus aureus methicillin resistant penicillin resistant macrolide sensitive (PBP2a producer); format: functional
[7] = tested on: Serratia; assay: Compound was evaluated for inhibitory activity against X99 Serratia; format: functional
[8] = tested on: Providencia stuartii; assay: Compound was evaluated for inhibitory activity against PR33 Providencia stuartii; format: functional
[9] = tested on: Escherichia coli; assay: Compound was evaluated for inhibitory activity against TEM Escherichia coli beta-lactamase; format: functional
[10] = tested on: Enterobacter cloacae; assay: Compound was evaluated for inhibitory activity against 265a Enterobacter cloacae beta-lactamase; format: functional
[11] = tested on: Salmonella; assay: Compound was evaluated for inhibitory activity against X514 Salmonella; format: functional
[12] = tested on: Providencia rettgeri; assay: Compound was evaluated for inhibitory activity against C24 Providencia rettgeri; format: functional
[13] = tested on: Enterococcus faecalis; assay: Compound was evaluated penicillin susceptible; format: functional
[14] = tested on: Citrobacter; assay: Compound was evaluated for inhibitory activity against CF17 Citrobacter; format: functional
[15] = tested on: Enterobacter cloacae; assay: Compound was evaluated for inhibitory activity against EB5 Enterobacter cloacae; format: functional
[16] = tested on: Morganella morganii; assay: Compound was evaluated for inhibitory activity against PR15 Morganella morganii; format: functional
[17] = tested on: Acinetobacter; assay: Compound was evaluated for inhibitory activity against AC12 Acinetobacter; format: functional
[18] = tested on: Klebsiella pneumoniae; assay: Compound was evaluated for inhibitory activity against X26 Klebsiella pneumoniae; format: functional
[19] = tested on: Streptococcus pneumoniae; assay: Compound was evaluated for inhibitory activity against Park S Streptococcus pneumoniae; format: functional
[20] = tested on: Escherichia coli; assay: Compound was evaluated for inhibitory activity against EC14 Escherichia coli sensitive; format: functional
[21] = tested on: Klebsiella aerogenes; assay: Compound was evaluated for inhibitory activity against C32 Enterobacter aerogenes; format: functional
[22] = tested on: Haemophilus influenzae; assay: Compound was evaluated for inhibitory activity against C.L Haemophilus influenzae ampicillin sensitive; format: functional
[23] = tested on: Staphylococcus aureus; assay: Compound was evaluated for inhibitory activity against X1.1 Staphylococcus aureus penicillin sensitive; format: functional
[24] = tested on: Streptococcus pyogenes; assay: Compound was evaluated for inhibitory activity against C203 Streptococcus pyogenes Gp.A; format: functional
[25] = tested on: Enterococcus faecalis; assay: Compound was evaluated for inhibitory activity against 2041 Enterococcus faecalis Gp.D streptococcus penicillin susceptible; format: functional
[26] = tested on: Streptococcus pyogenes; assay: Compound was evaluated for inhibitory activity against C203 Streptococcus pyogenes Gp.A; No growth; format: functional, organism-based
[27] = tested on: Salmonella; assay: Compound was evaluated for minimum inhibitory concentration against X514 Salmonella; format: functional
[28] = tested on: Streptococcus pneumoniae; assay: Compound was evaluated for inhibitory activity against Park S Streptococcus pneumoniae; No growth; format: functional, organism-based

Row | SMILES | MIC [1] [µM] | MIC [2] [µM] | MIC [3] [µM] | MIC [4] [µM] | MIC [5] [µM] | MIC [6] [µM] | MIC [7] [µM] | MIC [8] [µM] | MIC [9] [µM] | MIC [10] [µM] | MIC [12] [µM] | MIC [14] [µM] | MIC [15] [µM] | MIC [16] [µM] | MIC [17] [µM] | MIC [18] [µM] | MIC [20] [µM] | MIC [21] [µM] | MIC [22] [µM] | MIC [23] [µM] | also measured
1 | CCS(=O)(=O)Nc1cccc([C@@H](N)C(=O)N[C@@H]2C(=O)N3C(C(=O)O)=C(C(F)(F)F)CC[C@H]23)c1 | 32 (≈ 15.7 µg/mL) | 128 (≈ 62.8 µg/mL) | 4 (≈ 1.96 µg/mL) | 32 (≈ 15.7 µg/mL) | 16 (≈ 7.85 µg/mL) | 32 (≈ 15.7 µg/mL) | 64 (≈ 31.4 µg/mL) | 16 (≈ 7.85 µg/mL) | 1 (≈ 0.49 µg/mL) | 32 (≈ 15.7 µg/mL) | 32 (≈ 15.7 µg/mL) | 32 (≈ 15.7 µg/mL) | 32 (≈ 15.7 µg/mL) | 16 (≈ 7.85 µg/mL) | 64 (≈ 31.4 µg/mL) | 0.25 (≈ 0.123 µg/mL) | 1 (≈ 0.49 µg/mL) | 16 (≈ 7.85 µg/mL) | 1 (≈ 0.49 µg/mL) | 4 (≈ 1.96 µg/mL) | MIC [11]: 1 µM (≈ 0.49 µg/mL); MIC [13]: 32 µM (≈ 15.7 µg/mL); MIC [19]: 0.13 µM (≈ 0.0638 µg/mL); MIC [24]: 0.06 µM (≈ 0.0294 µg/mL)
2 | N[C@@H](C(=O)N[C@@H]1C(=O)N2C(C(=O)O)=C(C(F)(F)F)CC[C@H]12)c1cccc(C(F)(F)F)c1 | 16 (≈ 7.22 µg/mL) | 128 (≈ 57.8 µg/mL) | 1 (≈ 0.451 µg/mL) | 64 (≈ 28.9 µg/mL) | 128 (≈ 57.8 µg/mL) | 16 (≈ 7.22 µg/mL) | 128 (≈ 57.8 µg/mL) | 32 (≈ 14.4 µg/mL) | 16 (≈ 7.22 µg/mL) | 128 (≈ 57.8 µg/mL) | 64 (≈ 28.9 µg/mL) | 128 (≈ 57.8 µg/mL) | 4 (≈ 1.81 µg/mL) | 32 (≈ 14.4 µg/mL) | 32 (≈ 14.4 µg/mL) | 1 (≈ 0.451 µg/mL) | 8 (≈ 3.61 µg/mL) | 128 (≈ 57.8 µg/mL) | 1 (≈ 0.451 µg/mL) | 2 (≈ 0.903 µg/mL) | MIC [25]: 16 µM (≈ 7.22 µg/mL); MIC [11]: 32 µM (≈ 14.4 µg/mL); MIC [26]: No growth; MIC [19]: 0.13 µM (≈ 0.0587 µg/mL)
3 | CS(=O)(=O)Nc1cccc([C@@H](N)C(=O)N[C@@H]2C(=O)N3C(C(=O)O)=C(C(F)(F)F)CC[C@H]23)c1 | 16 (≈ 7.62 µg/mL) | 32 (≈ 15.2 µg/mL) | 2 (≈ 0.953 µg/mL) | 16 (≈ 7.62 µg/mL) | 4 (≈ 1.91 µg/mL) | 16 (≈ 7.62 µg/mL) | 16 (≈ 7.62 µg/mL) | 8 (≈ 3.81 µg/mL) | 1 (≈ 0.476 µg/mL) | 32 (≈ 15.2 µg/mL) | 16 (≈ 7.62 µg/mL) | 16 (≈ 7.62 µg/mL) | 16 (≈ 7.62 µg/mL) | 8 (≈ 3.81 µg/mL) | 64 (≈ 30.5 µg/mL) | 0.5 (≈ 0.238 µg/mL) | 0.5 (≈ 0.238 µg/mL) | 2 (≈ 0.953 µg/mL) | 2 (≈ 0.953 µg/mL) | 2 (≈ 0.953 µg/mL) | MIC [25]: 16 µM (≈ 7.62 µg/mL); MIC [11]: 2 µM (≈ 0.953 µg/mL); MIC [19]: 0.13 µM (≈ 0.0619 µg/mL); MIC [24]: 0.06 µM (≈ 0.0286 µg/mL)
4 | N[C@@H](C(=O)N[C@@H]1C(=O)N2C(C(=O)O)=C(C(F)(F)F)CC[C@H]12)c1ccc(F)cc1 | 64 (≈ 25.7 µg/mL) | 32 (≈ 12.8 µg/mL) | 1 (≈ 0.401 µg/mL) | 8 (≈ 3.21 µg/mL) | 8 (≈ 3.21 µg/mL) | 32 (≈ 12.8 µg/mL) | 16 (≈ 6.42 µg/mL) | 8 (≈ 3.21 µg/mL) | 1 (≈ 0.401 µg/mL) | 8 (≈ 3.21 µg/mL) | 8 (≈ 3.21 µg/mL) | 8 (≈ 3.21 µg/mL) | 8 (≈ 3.21 µg/mL) | 16 (≈ 6.42 µg/mL) | 64 (≈ 25.7 µg/mL) | 0.5 (≈ 0.201 µg/mL) | 1 (≈ 0.401 µg/mL) | 8 (≈ 3.21 µg/mL) | 0.5 (≈ 0.201 µg/mL) | 1 (≈ 0.401 µg/mL) | MIC [27]: 0.5 µM (≈ 0.201 µg/mL); MIC [25]: 32 µM (≈ 12.8 µg/mL); MIC [19]: 0.25 µM (≈ 0.1 µg/mL); MIC [24]: 0.06 µM (≈ 0.0241 µg/mL)
5 | N[C@@H](C(=O)N[C@@H]1C(=O)N2C(C(=O)O)=C(C(F)(F)F)CC[C@H]12)c1ccccc1 | 32 (≈ 12.3 µg/mL) | 16 (≈ 6.13 µg/mL) | 1 (≈ 0.383 µg/mL) | 4 (≈ 1.53 µg/mL) | 2 (≈ 0.767 µg/mL) | 8 (≈ 3.07 µg/mL) | 8 (≈ 3.07 µg/mL) | 4 (≈ 1.53 µg/mL) | 1 (≈ 0.383 µg/mL) | 8 (≈ 3.07 µg/mL) | 8 (≈ 3.07 µg/mL) | 4 (≈ 1.53 µg/mL) | 4 (≈ 1.53 µg/mL) | 32 (≈ 12.3 µg/mL) | 32 (≈ 12.3 µg/mL) | 0.25 (≈ 0.0958 µg/mL) | 0.5 (≈ 0.192 µg/mL) | 4 (≈ 1.53 µg/mL) | 1 (≈ 0.383 µg/mL) | 0.5 (≈ 0.192 µg/mL) | MIC [25]: 16 µM (≈ 6.13 µg/mL); MIC [11]: 0.25 µM (≈ 0.0958 µg/mL); MIC [19]: 0.25 µM (≈ 0.0958 µg/mL); MIC [24]: 0.03 µM (≈ 0.0115 µg/mL)
6 | Nc1ccc([C@@H](N)C(=O)N[C@@H]2C(=O)N3C(C(=O)O)=C(C(F)(F)F)CC[C@H]23)cc1 | 64 (≈ 25.5 µg/mL) | 32 (≈ 12.7 µg/mL) | 1 (≈ 0.398 µg/mL) | 16 (≈ 6.37 µg/mL) | 4 (≈ 1.59 µg/mL) | 64 (≈ 25.5 µg/mL) | 16 (≈ 6.37 µg/mL) | 32 (≈ 12.7 µg/mL) | 1 (≈ 0.398 µg/mL) | 32 (≈ 12.7 µg/mL) | 16 (≈ 6.37 µg/mL) | 16 (≈ 6.37 µg/mL) | 16 (≈ 6.37 µg/mL) | 8 (≈ 3.19 µg/mL) | 64 (≈ 25.5 µg/mL) | 0.5 (≈ 0.199 µg/mL) | 0.5 (≈ 0.199 µg/mL) | 8 (≈ 3.19 µg/mL) | 1 (≈ 0.398 µg/mL) | 2 (≈ 0.797 µg/mL) | MIC [25]: 16 µM (≈ 6.37 µg/mL); MIC [11]: 0.25 µM (≈ 0.0996 µg/mL); MIC [26]: No growth; MIC [28]: No growth
